Results published in ChEMBL document CHEMBL3352474, “Design, synthesis and biological evaluation of FLT3 covalent inhibitors with a resorcylic acid core” (Bioorg Med Chem, 2014).

How the values were obtained:
[1] = Antiproliferative activity against human THP1 cells assessed as growth inhibition at 5 uM after 72 hrs by luminescent cell viability assay; type: functional; conditions: THP-1, 72 h, read-out: GI
[2] = Antiproliferative activity against human THP1 cells after 72 hrs by luminescent cell viability assay; type: functional, cell-based; conditions: THP-1, 72 h
MV4-11 [3] = assay: Antiproliferative activity against human MV4-11 cells assessed as growth inhibition at 5 uM after 72 hrs by luminescent cell viability assay; type: functional; conditions: MV4-11, 72 h, read-out: GI
MV4-11 [4] = assay: Antiproliferative activity against human MV4-11 cells after 72 hrs by luminescent cell viability assay; type: functional, cell-based; conditions: MV4-11, 72 h
[5] = molecular target: T1, Receptor-type tyrosine-protein kinase FLT3 (Homo sapiens, UniProt P36888); assay: Inhibition of recombinant FLT3 (unknown origin) by TR-FRET assay
T1 sequence (P36888 whole entry): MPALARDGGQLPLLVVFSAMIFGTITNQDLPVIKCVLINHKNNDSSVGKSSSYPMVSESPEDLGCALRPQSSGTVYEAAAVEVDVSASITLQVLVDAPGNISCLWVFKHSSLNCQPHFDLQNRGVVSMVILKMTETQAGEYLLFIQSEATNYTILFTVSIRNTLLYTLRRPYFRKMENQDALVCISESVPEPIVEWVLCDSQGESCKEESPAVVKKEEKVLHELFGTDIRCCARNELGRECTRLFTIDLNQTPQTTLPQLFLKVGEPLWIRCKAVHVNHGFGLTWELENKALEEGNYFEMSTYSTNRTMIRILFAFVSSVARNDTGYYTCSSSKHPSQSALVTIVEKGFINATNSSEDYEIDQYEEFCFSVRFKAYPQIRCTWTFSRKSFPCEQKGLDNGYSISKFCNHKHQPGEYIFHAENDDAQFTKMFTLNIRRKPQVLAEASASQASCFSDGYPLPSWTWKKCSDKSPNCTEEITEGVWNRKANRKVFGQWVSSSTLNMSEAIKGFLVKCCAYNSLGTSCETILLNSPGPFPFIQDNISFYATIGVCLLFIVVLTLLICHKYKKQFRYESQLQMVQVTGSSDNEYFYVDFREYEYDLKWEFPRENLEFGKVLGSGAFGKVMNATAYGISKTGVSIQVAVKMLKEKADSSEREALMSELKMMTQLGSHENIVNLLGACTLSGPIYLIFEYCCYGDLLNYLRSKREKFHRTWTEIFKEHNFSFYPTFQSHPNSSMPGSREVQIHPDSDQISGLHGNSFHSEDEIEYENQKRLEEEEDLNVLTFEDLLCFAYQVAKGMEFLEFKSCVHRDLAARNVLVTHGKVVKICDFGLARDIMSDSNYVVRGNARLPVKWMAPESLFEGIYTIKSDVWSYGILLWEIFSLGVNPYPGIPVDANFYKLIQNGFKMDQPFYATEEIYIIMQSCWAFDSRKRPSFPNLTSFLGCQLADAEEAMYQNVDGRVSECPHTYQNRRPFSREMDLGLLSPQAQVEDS

[6] = molecular target: Receptor-type tyrosine-protein kinase FLT3 (Homo sapiens, UniProt P36888, D835Y); assay: Inhibition of recombinant FLT3 D835Y mutant (unknown origin) by TR-FRET assay
[7] = molecular target: Receptor-type tyrosine-protein kinase FLT3 (Homo sapiens, UniProt P36888, ITD); assay: Inhibition of recombinant FLT3 ITD mutant (unknown origin) by RBC kinase assay
[8] = Antiproliferative activity against human HL60 cells assessed as growth inhibition at 5 uM after 72 hrs by luminescent cell viability assay; type: functional; conditions: HL-60, 72 h, read-out: GI
[9] = Antiproliferative activity against human HEK293T cells assessed as growth inhibition at 5 uM after 72 hrs by luminescent cell viability assay; type: cell-based, HEK-293T; conditions: read-out: GI
K562 = assay: Antiproliferative activity against human K562 cells assessed as growth inhibition at 5 uM after 72 hrs by luminescent cell viability assay; type: functional; conditions: K562, 72 h, read-out: GI
[10] = molecular target: MAP kinase-interacting serine/threonine-protein kinase 1 (Homo sapiens) (UniProt Q9BUB5); assay: Inhibition of MNK1 (unknown origin) at 10 uM
Chain of MAP kinase-interacting serine/threonine-protein kinase 1 (Homo sapiens) (Q9BUB5 whole entry, looked up): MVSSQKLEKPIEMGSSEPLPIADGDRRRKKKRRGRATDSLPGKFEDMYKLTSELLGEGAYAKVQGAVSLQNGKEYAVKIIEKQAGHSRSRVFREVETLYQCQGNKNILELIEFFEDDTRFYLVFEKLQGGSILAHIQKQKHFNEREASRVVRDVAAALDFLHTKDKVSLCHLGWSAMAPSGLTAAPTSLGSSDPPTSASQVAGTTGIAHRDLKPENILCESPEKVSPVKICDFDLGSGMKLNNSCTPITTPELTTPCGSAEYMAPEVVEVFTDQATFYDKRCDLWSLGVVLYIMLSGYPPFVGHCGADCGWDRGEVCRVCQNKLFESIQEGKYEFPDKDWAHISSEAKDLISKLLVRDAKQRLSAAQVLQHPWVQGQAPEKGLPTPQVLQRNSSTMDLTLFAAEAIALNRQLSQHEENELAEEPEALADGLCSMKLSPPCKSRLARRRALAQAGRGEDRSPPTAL

[11] = molecular target: MAP kinase-interacting serine/threonine-protein kinase 2 (Homo sapiens) (UniProt Q9HBH9); assay: Inhibition of MNK2 (unknown origin) at 10 uM
Chain of MAP kinase-interacting serine/threonine-protein kinase 2 (Homo sapiens) (Q9HBH9 whole entry, looked up): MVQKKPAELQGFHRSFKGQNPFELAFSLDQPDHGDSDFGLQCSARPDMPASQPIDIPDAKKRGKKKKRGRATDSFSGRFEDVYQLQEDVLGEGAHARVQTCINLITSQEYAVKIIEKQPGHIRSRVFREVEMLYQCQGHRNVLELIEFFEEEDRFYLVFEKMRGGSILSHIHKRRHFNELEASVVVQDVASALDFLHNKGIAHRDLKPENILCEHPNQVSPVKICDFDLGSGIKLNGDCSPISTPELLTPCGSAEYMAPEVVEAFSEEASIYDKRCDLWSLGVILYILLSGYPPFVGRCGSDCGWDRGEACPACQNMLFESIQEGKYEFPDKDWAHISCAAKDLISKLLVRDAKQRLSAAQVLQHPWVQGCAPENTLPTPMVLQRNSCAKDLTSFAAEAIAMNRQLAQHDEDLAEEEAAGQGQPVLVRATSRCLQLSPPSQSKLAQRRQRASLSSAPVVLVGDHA

Structure (SMILES)	IC50 (MV4-11 [4]) [nM]	IC50 [5] [nM]	IC50 [6] [nM]	IC50 [7] [µM]	inhibition [10] [%]	inhibition [11] [%]	inhibition of growth at 5 µM [1] [%]	IC50 [2] [µM]	inhibition of growth at 5 µM (MV4-11 [3]) [%]	inhibition of growth at 5 µM [8] [%]	inhibition at 72 h, 5 µM [9] [%]	inhibition of growth at 5 µM (K562) [%]
C=CS(=O)(=O)NC/C=C/c1cc(OC)cc(O)c1C(=O)OC(C)C	4660	10800	12000	2.25	5.6	13.9	19.9	14.7	72.3	16.6	0.1	36.2
CCN(CC)C/C=C/C(=O)NC/C=C/c1cc(OCCc2ccc(F)cc2)cc(O)c1C(=O)OC(C)C	4040	> 30000	> 30000	1.11	7.8	0.8	25.7	> 10	84.9	36.8	28.5	49.8
C=CC(=O)NC/C=C/c1cc(OCCc2ccc(F)cc2)cc(O)c1C(=O)OC(C)C	4450	> 30000	> 30000	8.31	5.6	1.1	23.2	> 10	61.8	12.2	25.8	18.5
COc1cc(O)c(C(=O)OCc2ccc(Br)cc2)c(/C=C/CN2C(=O)C=CC2=O)c1	1010	1900	1740	> 30	4.3	0	0	7.97	97.9	36.7	20.1	28.7
COc1cc(O)c(C(=O)OCc2ccc(F)cc2)c(/C=C/CN2C(=O)C=CC2=O)c1	1460	1640	950	> 30	4.1	0	0	7.34	99.7	82.2	37.9	96.4

Second part, led by results:

IC50 (MV4-11 [4]) [nM]	IC50 [5] [nM]	IC50 [6] [nM]	IC50 [7] [µM]	inhibition [10] [%]	inhibition [11] [%]	Structure (SMILES)	inhibition of growth at 5 µM [1] [%]	IC50 [2] [µM]	inhibition of growth at 5 µM (MV4-11 [3]) [%]	inhibition of growth at 5 µM [8] [%]	inhibition at 72 h, 5 µM [9] [%]	inhibition of growth at 5 µM (K562) [%]
1890	150	940	0.98	8	3.1	CC(C)OC(=O)c1c(O)cc(OCCCN2CCOCC2)cc1/C=C/CN1C(=O)C=CC1=O	62.5	7.88	99.8	89.1	38.8	95.9
2150	3370	3610	21.8	6.7	5	COc1cc(/C=C/CN2C(=O)C=CC2=O)c(C(=O)OC(C)C)c(OC(C)=O)c1	3.3	10.4	99.8	87.9	47.4	99.2
3380	3010	5200	> 30	8.6	0	COc1cc(O)c(C(=O)OCC(C)c2ccccc2)c(/C=C/CN2C(=O)C=CC2=O)c1 (stereo not drawn)	0	> 10	99	56	0	74.9
1970	2690	2100	> 30	9.7	0	COc1cc(O)c(C(=O)OCC2CCCCC2)c(/C=C/CN2C(=O)C=CC2=O)c1	5.9	7.71	99.8	71	6.9	85.1
